# Results reported in the supplement of paper PMC10307832.
# Experiments:
# Assay in all cases: relative viability (nuclei count vs DMSO), 5 days (fraction); higher = more cells survive
# Lapatinib + Foretinib = compound: CS(=O)(=O)CCNCc1ccc(-c2ccc3ncnc(Nc4ccc(OCc5cccc(F)c5)c(Cl)c4)c3c2)o1 [Lapatinib] + COc1cc2c(Oc3ccc(NC(=O)C4(C(=O)Nc5ccc(F)cc5)CC4)cc3F)ccnc2cc1OCCCN1CCOCC1 [Foretinib] (partner 0.25 µM)
# In short: (§1)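 Nuclei were stained with Hoechst during a one-step fixation (final 0.05% Triton X-100, 1% formaldehyde, 1 ug/ml Hoechst) carried out 5 days after dosing, then counted on 4× images. The cells, lung cancer lines in 1536-well plates, had been dosed by pin tool the day after seeding with one drug alone or a fixed anchor-drug dose plus five library-drug doses (not always all listed) in √10 steps. Relative viability is the nuclei count in treated wells divided by that in vehicle wells, and each value is the median of duplicate plates.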
# Wnt-C59 + Trametinib = compound: CC1=NC=CC(=C1)C2=CC=C(C=C2)CC(=O)NC3=CC=C(C=C3)C4=CN=CC=C4 [Wnt-C59] + CC(=O)Nc1cccc(-n2c(=O)n(C3CC3)c(=O)c3c(Nc4ccc(I)cc4F)n(C)c(=O)c(C)c32)c1 [Trametinib] (partner 0.02 µM)
# In short: as §1
# Wnt-C59 + Olaparib = compound: CC1=NC=CC(=C1)C2=CC=C(C=C2)CC(=O)NC3=CC=C(C=C3)C4=CN=CC=C4 [Wnt-C59] + O=C(c1cc(Cc2n[nH]c(=O)c3ccccc23)ccc1F)N1CCN(C(=O)C2CC2)CC1 [Olaparib] (partner 8 µM)
# In short: as §1
# Lapatinib + AZD7762 = compound: CS(=O)(=O)CCNCc1ccc(-c2ccc3ncnc(Nc4ccc(OCc5cccc(F)c5)c(Cl)c4)c3c2)o1 [Lapatinib] + NC(=O)Nc1cc(-c2cccc(F)c2)sc1C(=O)N[C@H]1CCCNC1 [AZD7762] (partner 0.2 µM)
# In short: as §1
Cell Line,relative viability (Lapatinib + Foretinib; first compound 0.02 µM),relative viability (Lapatinib + Foretinib; first compound 0.06325 µM),relative viability (Lapatinib + Foretinib; first compound 0.2 µM),relative viability (Lapatinib + Foretinib; first compound 0.6325 µM),relative viability (Lapatinib + Foretinib; first compound 2 µM),relative viability (Wnt-C59 + Trametinib; first compound 0.001 µM),relative viability (Wnt-C59 + Trametinib; first compound 0.01 µM),relative viability (Wnt-C59 + Trametinib; first compound 0.03162 µM),relative viability (Wnt-C59 + Trametinib; first compound 0.1 µM),relative viability (Wnt-C59 + Olaparib; first compound 0.001 µM),relative viability (Wnt-C59 + Olaparib; first compound 0.01 µM),relative viability (Wnt-C59 + Olaparib; first compound 0.03162 µM),relative viability (Wnt-C59 + Olaparib; first compound 0.1 µM),relative viability (Lapatinib + AZD7762; first compound 0.06325 µM),relative viability (Lapatinib + AZD7762; first compound 0.6325 µM),relative viability (Lapatinib + AZD7762; first compound 2 µM)
NCI-H661,0.972,0.926,0.856,0.666,0.62,0.567,0.559,0.593,0.631,0.739,0.73,0.797,0.698,–,–,–
SW 1573,1.04,0.601,0.86,0.922,0.886,0.515,0.551,0.582,0.515,0.449,0.445,0.551,0.39,–,–,–
A549,0.952,0.872,1.04,0.918,0.877,–,–,–,–,0.302,0.321,0.357,0.332,–,–,–
NCI-H2228,0.837,0.714,0.96,0.826,0.701,0.549,0.574,0.477,0.499,1.04,0.635,0.641,0.734,–,–,–
NCI-H2023,–,–,0.685,0.437,0.357,0.608,0.579,0.679,0.543,0.498,0.517,0.555,0.411,–,–,–
NCI-H2009,1.17,1.25,1.26,1.22,1.17,0.267,0.315,0.267,0.294,0.644,0.765,0.734,0.727,–,–,–
NCI-H1299,1.1,0.885,1.12,1.1,1.05,–,–,–,–,0.918,0.953,0.932,0.937,–,–,–
NCI-H1703,0.305,0.347,0.296,0.299,0.388,–,–,–,–,0.507,0.368,0.611,0.322,0.119,0.121,0.113
NCI-H1650,1,1.08,1.03,1.01,0.684,0.642,0.716,0.684,0.774,0.78,0.817,0.802,0.684,–,–,–
SK-MES-1,0.826,0.499,0.969,0.908,0.516,0.61,0.556,0.511,0.518,0.662,0.684,0.863,0.615,–,–,–
COR-L23,0.949,0.872,0.918,0.971,0.891,0.626,0.648,0.684,0.56,0.295,0.309,0.362,0.32,–,–,–
NCI-H1623,0.702,0.637,0.634,0.785,0.277,–,–,–,–,–,–,–,–,–,–,–
NCI-H1563,0.861,0.881,0.953,0.831,0.857,–,–,–,–,–,–,–,–,–,–,–
EBC-1,0.113,0.0941,0.0867,0.108,0.0963,–,–,–,–,0.742,0.75,0.681,0.635,–,–,–
